# Data as given in patent USRE40387E1, “Pharmaceutical compositions, dosage forms and methods for oral administration of epothilones” (Bristol-Myers Squibb Company, priority 2001, dated 2008).
# Assay: Stability of liquid formulation in 80:20 propylene glycol:ethanol
# Format: physicochemical
# Details: for can be stored for up to: 2.5 mg/mL to 12.5 mg/mL in 80:20 propylene glycol:ethanol
# Experimental: The stability of compound (A) in 80:20 propylene glycol:ethanol was evaluated by reconstituting 25 mg Compound (A) with 80:20 propylene glycol:ethanol to provide a liquid oral dosage form at concentrations of 2.5 mg/mL to 12.5 mg/mL. The resulting liquid oral dosage form was then stored up to 20 hours at ambient temperature (20° C. to 25° C.) and room light and at refrigerated temperature (2° C. to 8° C.).
# The change in total impurities was attributed to an increase of an oxazine impurity/degradant whose structure is depicted below: [drawing 10] Samples were analyzed using HPLC with a 75 mm×4.6 mm i.d., 3.5 :m particle sizeWaters Symmetry Shield RP8 column and with UV detection at 240 nm. 10 :L injection volumes were used, the column was maintained at ambient temperature and the flow rate was 1 mL/min. Analysis times were 1 hour and samples were eluted using gradient elution with a mobile phase of water (0.05% acetic acid) (mobil phase A) and a mobile phase of acetonitrile (0.05% acetic acid). The elution profile is described in the table below.
structure (smiles),measurement,setting,value
"C/C(=C\c1csc(C)n1)[C@@H]1C[C@@H]2O[C@]2(C)CCC[C@H](C)[C@H](O)[C@@H](C)C(=O)C(C)(C)[C@@H](O)CC(=O)N1 (relative stereo) [Compound (A), [1S-[1R*,3R*(E),7R*,10S*,11R*,12R*,16S*]]-7,11-dihydroxy 8,8,10,12,16-pentamethyl-3-[1-methyl-2-(2-methyl-4-thiazolyl)ethenyl-4-aza-17-oxobicyclo[14.1.0]heptadecane-5,9-dione]",can be stored for up to,ambient temperature,up to 6 hours
same,can be stored for up to,refrigerated temperature,up to 20 hours
same,total impurities/degradants and potency,"ambient temperature (20° C. to 25° C.) and room light, 20 hours",increase in total impurities/degradants and a decrease in potency
same,total impurities/degradants,"refrigerated temperature (2° C. to 8° C.), 20 hours",slight increase in total impurities/degradants
same,appearance of the liquid oral dosage form,"up to 20 hours, either storage condition",No changes from initial
